The target in assay [1] is T1, Human D1 (Homo sapiens (Human), UniProt P21728). Kind of assay: Human D1 Receptor Binding Assay ([3H]-SCH23390 competition). Conditions: read-out: Human D1 Receptor Binding, Ki (μM); Geometric mean of 2-3 determinations; over-expressing LTK human cell lines, 0.5 nM [3H]-SCH23390, 30 min at 37° C.; footnote b = single determination, c = geometric mean of ≧4 determinations. As for the experimental part: D1 binding assays were performed using over-expressing LTK human cell lines. […] These ligand and tissue concentrations were used in time course studies to determine linearity and equilibrium conditions for binding. […] The pellet was resuspended in assay buffer [50 mM Tris (pH 7.4@ RT) containing 4 mM MgSO4 and 0.5 mM EDTA]. […] Non-specific binding was determined by radioligand binding in the presence of a saturating concentration of (+)-Butaclamol (10 μM), a D1 antagonist. After a 30 minute incubation period at 37° C., assay samples were rapidly filtered through Unifilter-96 GF/B PEI-coated filter plates and rinsed with 50 mM Tris buffer (pH 7.4 at 4° C.). […] Ki values were calculated according to the Cheng-Prusoff equation: […]
T1 sequence (P21728 whole entry): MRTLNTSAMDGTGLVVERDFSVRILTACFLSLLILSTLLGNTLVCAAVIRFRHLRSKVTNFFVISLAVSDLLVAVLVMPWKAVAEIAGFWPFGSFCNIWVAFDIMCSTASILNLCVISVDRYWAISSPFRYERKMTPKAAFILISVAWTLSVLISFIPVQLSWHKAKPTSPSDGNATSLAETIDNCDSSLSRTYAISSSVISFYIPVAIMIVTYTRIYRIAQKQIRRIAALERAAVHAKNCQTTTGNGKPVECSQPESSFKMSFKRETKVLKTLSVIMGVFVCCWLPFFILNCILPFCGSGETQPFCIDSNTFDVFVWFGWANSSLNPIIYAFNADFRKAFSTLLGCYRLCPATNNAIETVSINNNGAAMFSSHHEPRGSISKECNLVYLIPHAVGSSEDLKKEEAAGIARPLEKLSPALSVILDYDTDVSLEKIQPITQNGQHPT

In assay [2] the target is T1, Human D1. As to the kind of experiment: D1 cAMP HTRF Assay. The class given is cell-based. The conditions noted are these: HEK293T/hD1#1 stable cell line, 30 min at room temperature, footnote a = geometric mean of ≧7 determinations. From the text:
This assay was used to determine the ability of a test compound to agonize (including partially agonize) D1. A Mab anti-cAMP labeled Cryptate visualizes the tracer. […] The signal, therefore, is inversely proportional to the concentration of cAMP in the sample.
The cAMP Dynamic kit was obtained from Cisbio International (Cisbio 62AM4PEJ). Multidrop Combi (Thermo Scientific) was used for assay additions. An EnVision (PerkinElmer) reader was used to read HTRF.
A HEK293T/hD1#1 stable cell line was constructed internally (Pfizer Ann Arbor).
Media was removed and cell pellet was re-suspended in PBS/[…] generating 2e5 cells/mL. […] Working solutions of cAMP-D2 and anti-cAMP-cryptate were prepared according to Cisbio instructions. […] The assay plate was incubated for 1 hour at room temperature. The assay plate was read on an EnVision plate reader using Cisbio recommended settings.
Data analysis was done using computer software. Percent effects were calculated from the compound controls. Ratio EC50 was determined using the raw ratio data from the EnVision reader. The cAMP standard curve was used in an analysis program to determine cAMP concentrations from raw ratio data. cAMP EC50 was determined using the calculated cAMP data.
Background: In TR-FRET formats the signal depends on donor and acceptor labels being close together.

The mark [3] stands for this setting: read-out: Human D1 cAMP HTRF, EC50 (μM), Geometric mean of 2-6 determinations.

Counter-ions that a name gives are not always drawn. Like-named read-outs stand apart in the source and are kept apart here. Where only a bound is given, the exact number is not on record here.

For the compound `Cc1cc(Oc2nccc3[nH]ccc23)ccc1-c1c(C)cnnc1C` (single isomer, unassigned; ent-2) [Example 12, 4-[4-(3,5-dimethylpyridazin-4-yl)-3-methylphenoxy]-1H-pyrrolo[3,2-c]pyridine, ENT-2], the Ki in assay [1] worked out at 0.0883 µM. Moreover, in assay [2] (setting [3]), the EC50 was found to be 0.52 µM.

As to `Cc1cc(Oc2nccc3[nH]ncc23)ccc1-c1cn[nH]c(=O)c1C` [Example 42, 4-methyl-5-[2-methyl-4-(1H-pyrazolo[4,3-c]pyridin-4-yloxy)phenyl]pyridazin-3(2H)-one, trifluoroacetate salt], the Ki in assay [1] came to 0.123 µM. For the same compound, the EC50 in assay [2] turned out to be 0.34 µM.

As to `Cc1ncnc(N2CC(F)C2)c1-c1ccc(Oc2nccc3[nH]ccc23)cc1F` [Example 25, 4-{3-fluoro-4-[4-(3-fluoroazetidin-1-yl)-6-methylpyrimidin-5-yl]phenoxy}-1H-pyrrolo[3,2-c]pyridine], the Ki in assay [1] is 0.00509 µM. The compound also returned an EC50 in assay [2] of 0.156 µM.

As to `Cc1ncc2nccn2c1-c1ccc(Oc2nccc3[nH]ccc23)cc1` [Example 19, 6-methyl-5-[4-(1H-pyrrolo[3,2-c]pyridin-4-yloxy)phenyl]imidazo[1,2-a]pyrazine], the Ki in assay [1] was determined as 0.0159 µM. Moreover, in assay [2], the EC50 was found to be 0.464 µM.

For the compound `Cc1ncnc(C)c1-c1ccc(Oc2nccc3[nH]ccc23)cc1` [Example 20, 4-[4-(4,6-dimethylpyrimidin-5-yl)phenoxy]-1H-pyrrolo[3,2-c]pyridine], the Ki in assay [1] amounted to 0.0443 µM. The same compound registered an EC50 in assay [2] of 0.238 µM.

In the case of `COc1cc(Oc2nccc3[nH]ncc23)ccc1-c1c(C)ncnc1C` [Example 33, 4-[4-(4,6-dimethylpyrimidin-5-yl)-3-methoxyphenoxy]-1H-pyrazolo[4,3-c]pyridine], the Ki in assay [1] came out at 0.124 µM. The EC50 in assay [2] was 2.08 µM.

With `Cc1cc(Oc2nccc3[nH]ccc23)ccc1-c1c(C)n[nH]c(=O)c1C` (single isomer, unassigned; ent-1) [Example 9, 4,6-dimethyl-5-[2-methyl-4-(1H-pyrrolo[3,2-c]pyridin-4-yloxy)phenyl]pyridazin-3(2H)-one, ENT-1], the Ki in assay [1] was 0.00487 µM. Further, in assay [2] (setting [3]), the EC50 amounted to 0.00733 µM.

For `Cc1n[nH]c(=O)c(C)c1-c1ccc(Oc2nccc3[nH]nc(C)c23)cc1` [Example 45, 4,6-dimethyl-5-{4-[(3-methyl-1H-pyrazolo[4,3-c]pyridin-4-yl)oxy]phenyl}pyridazin-3(2H)-one], in assay [1], the Ki stood at 0.0103 µM. This compound had an EC50 in assay [2] of 0.0663 µM.

Regarding `Cc1ncnc(C#N)c1-c1ccc(Oc2nccc3[nH]ncc23)cc1F` [Example 35, 5-[2-fluoro-4-(1H-pyrazolo[4,3-c]pyridin-4-yloxy)phenyl]-6-methylpyrimidine-4-carbonitrile], the Ki in assay [1] amounted to 0.0696 µM. Further, in assay [2], the EC50 turned out to be 1.34 µM.

Turning to `Cc1cc2[nH]ncc2c(Oc2ccc(-c3c(C)n[nH]c(=O)c3C)cc2)n1` [Example 46, 4,6-dimethyl-5-{4-[(6-methyl-1H-pyrazolo[4,3-c]pyridin-4-yl)oxy]phenyl}pyridazin-3(2H)-one], the Ki in assay [1] worked out at 0.0247 µM. The EC50 in assay [2] was determined as 0.0891 µM.

With `Cc1ncnc(C)c1-c1ccc(Oc2nccc3[nH]ncc23)cc1` [Example 38, 4-[4-(4,6-dimethylpyrimidin-5-yl)phenoxy]-1H-pyrazolo[4,3-c]pyridine], the Ki in assay [1] is 0.129 µM. In assay [2], a half-maximal effect (EC50) was put at 2.52 µM.

Regarding `Cc1n[nH]c(=O)c(C)c1-c1ccc(Oc2nccc3[nH]ccc23)cc1` [Example 7, 4,6-dimethyl-5-[4-(1H-pyrrolo[3,2-c]pyridin-4-yloxy)phenyl]pyridazin-3(2H)-one], the inhibition constant (Ki) in assay [1] is 0.00412 µM. In addition, the EC50 in assay [2] was found to be 0.0192 µM.

As for `Cc1cc(Oc2nccc3n[nH]cc23)ccc1-c1c(C)c(=O)[nH]c(=O)n1C` (single isomer, unassigned) [Example 8, (−)-1,5-dimethyl-6-[2-methyl-4-(1H-pyrazolo[4,3-c]pyridin-4-yloxy)phenyl]pyrimidine-2,4(1H,3H)-dione], the Ki in assay [1] worked out at 0.00183 µM. The compound further yielded an EC50 in assay [2] of under 0.00222 µM.

As to `Cc1cc(Oc2nccc3[nH]ccc23)ccc1-c1cn[nH]c(=O)c1C` [Example 28, 4-methyl-5-[2-methyl-4-(1H-pyrrolo[3,2-c]pyridin-4-yloxy)phenyl]pyridazin-3(2H)-one], the Ki in assay [1] came to 0.0357 µM. Besides, in assay [2], the EC50 is 0.0549 µM.

For the compound `Cc1cc(Oc2nccc3n[nH]cc23)ccc1-c1c(C)n[nH]c(=O)c1C` (single isomer, unassigned) [Example 3, (+)-4,6-dimethyl-5-[2-methyl-4-(1H-pyrazolo[4,3-c]pyridin-4-yloxy)phenyl]pyridazin-3(2H)-one], the Ki in assay [1] turned out to be 0.00976 µM. In addition, in assay [2], the response was half-maximal at 0.0151 µM (EC50).

In the case of `Cc1ncc2nccn2c1-c1ccc(Oc2nccc3[nH]ccc23)cc1F` [Example 18, 5-[2-fluoro-4-(1H-pyrrolo[3,2-c]pyridin-4-yloxy)phenyl]-6-methylimidazo[1,2-a]pyrazine], in assay [1], the Ki was determined as 0.0294 µM. The compound also gave an EC50 in assay [2] of 0.141 µM.

Turning to `Cc1ncnc(C)c1-c1ccc(Oc2nccc3[nH]ncc23)cc1Cl` [Example 37, 4-[3-chloro-4-(4,6-dimethylpyrimidin-5-yl)phenoxy]-1H-pyrazolo[4,3-c]pyridine], in assay [1], the Ki is 0.0523 µM. This compound yielded an EC50 in assay [2] of 0.248 µM.

`Cc1ncnc(C)c1-c1ccc(Oc2nccc3[nH]ncc23)cc1F` [Example 32, 4-[4-(4,6-dimethylpyrimidin-5-yl)-3-fluorophenoxy]-1H-pyrazolo[4,3-c]pyridine]: the Ki in assay [1] came to 0.0723 µM. This compound also gave an EC50 in assay [2] of 0.903 µM.

As for `Cc1cc(Oc2nccc3n[nH]cc23)ccc1-c1c(C)ncc(=O)n1C` (single isomer, unassigned) [Example 40, (+)-1,5-dimethyl-6-[2-methyl-4-(1H-pyrazolo[4,3-c]pyridin-4-yloxy)phenyl]pyrazin-2(1H)-one], in assay [1], the Ki turned out to be 0.0281 µM. In assay [2], a half-maximal response (EC50) required 0.674 µM.

As for `Cc1cc(Oc2nccc3[nH]ccc23)ccc1-c1c(C)ncc(=O)n1C` (single isomer, unassigned) [Example 26, (−)-1,5-dimethyl-6-[2-methyl-4-(1H-pyrrolo[3,2-c]pyridin-4-yloxy)phenyl]pyrazin-2(1H)-one], the Ki in assay [1] turned out to be 0.00456 µM. Also, in assay [2], the EC50 was 0.073 µM.

Take `Cc1cc(Oc2nccc3n[nH]cc23)ccc1-c1c(C)ncc(=O)n1C` (single isomer, unassigned) [Example 39, (−)-1,5-dimethyl-6-[2-methyl-4-(1H-pyrazolo[4,3-c]pyridin-4-yloxy)phenyl]pyrazin-2(1H)-one]: the Ki in assay [1] was 0.0418 µM. Further, it took 0.168 µM to reach a half-maximal effect in assay [2] (EC50).

For `Cc1ncnc(C)c1-c1ccc(Oc2nccc3[nH]ccc23)cc1C#N` [Example 21, 2-(4,6-dimethylpyrimidin-5-yl)-5-(1H-pyrrolo[3,2-c]pyridin-4-yloxy)benzonitrile], in assay [1], the Ki came to 0.102 µM. The compound further came in with an EC50 in assay [2] of 0.247 µM.

As for `Cc1cc(Oc2nccc3[nH]ncc23)ccc1-c1c(C)ncnc1C` [Example 6, 4-[4-(4,6-dimethylpyrimidin-5-yl)-3-methylphenoxy]-1H-pyrazolo[4,3-c]pyridine], the Ki in assay [1] turned out to be 0.113 µM. Besides, the midpoint of the response in assay [2], the EC50, lay at 0.568 µM.

With `Cc1cc(Oc2nccc3[nH]ccc23)ccc1-c1c(C)n[nH]c(=O)c1C` (single isomer, unassigned; ent-2) [Example 10, 4,6-dimethyl-5-[2-methyl-4-(1H-pyrrolo[3,2-c]pyridin-4-yloxy)phenyl]pyridazin-3(2H)-one, ENT-2], in assay [1], the Ki came to 0.00504 µM. Also, the EC50 in assay [2] (setting [3]) came to 0.00431 µM.

In the case of `Cc1n[nH]c(=O)c(C)c1-c1ccc(Oc2nccc3[nH]ncc23)cc1` [Example 41, 4,6-dimethyl-5-[4-(1H-pyrazolo[4,3-c]pyridin-4-yloxy)phenyl]pyridazin-3(2H)-one], the Ki in assay [1] came to 0.0409 µM. The compound further showed an EC50 in assay [2] of 0.127 µM.

For `Cc1cc(Oc2nccc3[nH]ccc23)ccc1-c1c(C)cnn1C` [Example 2, 4-[4-(1,4-dimethyl-1H-pyrazol-5-yl)-3-methylphenoxy]-1H-pyrrolo[3,2-c]pyridine], the Ki in assay [1] came out at 0.0348 µM. For the same compound, in assay [2], a half-maximal response (EC50) required 0.355 µM.

For the compound `Cc1cc(Oc2nccc3[nH]ccc23)ccc1-c1c(C)ncc2nccn12` [Example 14, 6-methyl-5-[2-methyl-4-(1H-pyrrolo[3,2-c]pyridin-4-yloxy)phenyl]imidazo[1,2-a]pyrazine], the inhibition constant (Ki) in assay [1] was 0.00798 µM. Further, in assay [2], the EC50 is 0.137 µM.

The Ki is a measure of affinity in units of concentration, obtained from inhibition or displacement. By EC50 is commonly meant the concentration that produces a half-maximal response.

The record behind these values is patent publication US8822494B2 (Pfizer Inc., priority 2012, dated 2014).
